US20190364895A1, “ANTIMICROBIAL COMPOUNDS OR PRECURSORS THEREOF COMRPISING ONE OR MORE CATIONIC CENTERS AND A COATING-INCORPORATION GROUP” (Exigence Technologies Inc., priority 2016, published 2019)

Test system: E. coli (ATCC 25922)
Experiment: Biocidal activity of coated hard-substrates, ISO 22196 methodology
Assay type: cell-based
Settings: 5% FBS and MH Broth
Procedure: Tables 27 to 35 summarize the biocidal activity of the coated hard-substrates as assessed using the ISO 22196 methodology. Briefly, control and chlorinated samples of the coated hard-substrates (chlorinated at 200 ppm for 10 minutes) were challenged with E. coli (ATCC 25922). Using a pipette, 200 μL of test inoculum were transferred at a concentration of 1-2×10^6 CFU/mL (in sterile DI water, 5% fetal bovine serum or 100% Mueller-Hinton broth) onto a 50 mm×50 mm plastic test surface in a sterile petri dish. The test inoculum was covered with a piece of PET (polyethylene terephthalate) film that measured 40 mm×40 mm. A slight pressure was applied to the film so that the test inoculum spread to the edges. The test inoculum was kept within the edges of the film and was capped with the lid of the petri dish. Contact times for the samples were 10, 30 and 60 minutes. Then the samples were quenched with 10 mL of sterile 0.05 M sodium thiosulfate solution to remove all oxidative chlorine in the petri dish. This quenching step was followed by repetitive washing and 1 minute of sonication. […] The plates were incubated at 37° C. for about 16 hours to about 18 hours, and viable bacterial colonies were recorded for kill kinetics analysis. The logarithm reduction was determined as follows: […]

| Compound | biocidal activity (in words) |
| --- | --- |
| CCCC[P+](C)(CCCC[P+](CCCCCCCCCC[N+](C)(CCCN)CCCN)(c1ccccc1)c1ccccc1)c1ccccc1.[Br-].[Br-].[Br-] (centres unmarked) [C4-P—C4-P—C10-BIS-C3-NH2] | poor biocidal activity |
| CC1(C)CC([N+](C)(C)CCCC[P+](CCCC[P+](CCCC[N+](C)(CCCN)CCCN)(c2ccccc2)c2ccccc2)(c2ccccc2)c2ccccc2)CC(C)(C)N1.[Br-].[Br-].[Br-].[Br-] [PIP—C4-P—C4-P—C4-BIS-C3-NH2] | had biocidal activity |
